Consider 1 compound from ChEMBL document CHEMBL5376002, “A Hybrid Antimicrobial Peptide Targeting Staphylococcus aureus with a Dual Function of Inhibiting Quorum Sensing Signaling and an Antibacterial Effect” (J Med Chem, 2023).

Values after ≈ are worked out from the molar mass of the structure shown. Active and inactive are the calls of the source. No cut-off for these calls is given here. Numbered stars: 1 amine (or outer) side, 2 acyl side, 3 side chain; on linkers, the order of the positions; unused ones are H or OH. Bridge positions count the residues as written; N and C are the ends. Square brackets hold non-standard residues; d marks the D form. Peptide text beside a SMILES is read from it. I, II: the chains in the order shown. X1 = O=C1CC([*:2])C(=O)N1CCCCCC(=O)[*:1]; Dab = NCC[C@H](N)C(=O)O

In series [1] the test system is Staphylococcus epidermidis. As to the kind of experiment: Bactericidal activity against Staphylococcus epidermidis ATCC 12228 assessed as inhibition of bacterial growth incubated for 18 to 24 hrs. The series is classed as functional. Conditions: time 18-24 hrs.
A further series relates to Streptococcus mutans. Put plainly: Bactericidal activity against Streptococcus mutans ATCC 25175 assessed as inhibition of bacterial growth incubated for 18 to 24 hrs. The series is classed as functional. Conditions: time 18-24 hrs.
The test system of the next series is Escherichia coli. Put plainly: Bactericidal activity against Escherichia coli ATCC 25922 assessed as inhibition of bacterial growth incubated for 18 to 24 hrs. The note with it: time 18-24 hrs. It is filed as functional.
Series [2] concerns Staphylococcus aureus. Put plainly: Antivirulence activity against Staphylococcus aureus assessed as downregulation of psm-alpha expression level at 1 to 100 uM incubated for 24 hrs by qRT-PCR analysis. The series is classed as functional, organism-based. Conditions: dose 1-100 µM.
For series [3], the system named is Staphylococcus aureus. Put plainly: Antibacterial activity against Staphylococcus aureus ATCC 6538p assessed as inhibition of bacterial growth incubated for 18 to 24 hrs. The note with it: time 18-24 hrs. It is filed as functional.
The next series deals with Streptococcus pneumoniae. Put plainly: Bactericidal activity against Streptococcus pneumoniae ATCC 49619 assessed as inhibition of bacterial growth incubated for 18 to 24 hrs. It is filed as functional. Conditions: time 18-24 hrs.
A short description of series [4]: Toxicity in Kunming mouse infected with Staphylococcus aureus ATCC 6538p assessed as weight loss 15 to 45 mg/kg, ip pre-infected with bacteria for 1 hr followed by compound administration and measured after 3 days. The series is classed as organism-based. The note with it: in vivo, 72 h, dose 15-45 mg/kg, time 3 day.
In series [5] the test system is Staphylococcus saprophyticus. Put plainly: Antibacterial activity against Staphylococcus saprophyticus ATCC BAA-750 assessed as inhibition of bacterial growth incubated for 18 to 24 hrs. It is filed as functional. The note with it: time 18-24 hrs.
The test system of series [6] is Staphylococcus saprophyticus. Put plainly: Antibacterial activity against Staphylococcus saprophyticus assessed as reduction in bacterial growth at 6.25 uM measured at 20 mins by time kill assay. It is filed as functional, organism-based.
Series [7] relates to Staphylococcus aureus. Put plainly: Antivirulence activity against Staphylococcus aureus ATCC 6538p assessed as downregulation of RNAIII expression level at 2.5 uM measured for 28 passages by qRT-PCR analysis. The series is classed as functional, organism-based.
Series [8] can be described thus: Toxicity in Kunming mouse infected with Staphylococcus aureus ATCC 6538p assessed as animal survival rate 15 mg/kg, ip pre-infected with bacteria for 1 hr followed by compound administration and measured after 7 days. The note with it: in vivo, 168 h, time 7 day. The series is classed as organism-based.

Consider `CC[C@H](C)[C@H](NC(=O)CNC(=O)CNC(=O)[C@@H](N)CSC1CC(=O)N(CCCCCC(=O)NCC(=O)N[C@H](C(=O)N[C@@H](CCCCN)C(=O)N[C@@H](CC(N)=O)C(=O)N[C@@H](CC(C)C)C(=O)N[C@@H](Cc2c[nH]c3ccccc23)C(=O)N[C@@H](CCCCN)C(=O)N[C@@H](CCCCN)C(=O)N[C@@H](CCSC)C(=O)N[C@H](C(=O)N[C@@H](CCCCN)C(=O)N[C@@H](CC(C)C)C(=O)N[C@@H](Cc2c[nH]c3ccccc23)C(=O)N[C@@H](Cc2ccc(O)cc2)C(=O)O)[C@@H](C)CC)[C@@H](C)CC)C1=O)C(=O)N[C@@H](CC(N)=O)C(=O)N[C@H]1CCNC(=O)[C@H](CC(C)C)NC(=O)[C@H](CC(C)C)NC(=O)[C@H](Cc2ccccc2)NC(=O)[C@H](C)NC1=O` (stereo partly specified) (I: GIKNLWKKMIKLWY-OH / II: H-CGGIN[Dab]AFLL; linker I:N-II:1 via X1; lactam II:6-II:C), for which the MBC in series [1] was found to be 3.13 µM (≈ 9.4 µg/mL); in the series with Streptococcus mutans, 3.13 µM (≈ 9.4 µg/mL); with Escherichia coli, 12.5 µM (≈ 37.5 µg/mL); in the series on Streptococcus pneumoniae, 6.25 µM (≈ 18.8 µg/mL). Moreover, the result in the series on Staphylococcus aureus [2] and in the series on Staphylococcus aureus [7] was Active. In addition, the minimum inhibitory concentration (MIC) (in the series on Staphylococcus aureus [3]; in series [5]) was 3.13 µM (≈ 9.4 µg/mL) each time. Besides, the Activity entry in [4] is on record as “Non-Toxic”; in [8], 20%. For the same compound, the result in [6] was inactive.
